Where a SMILES comes first, the peptide text is derived from it. Where no end group is shown, it is not given here. The star is where a group is joined. Azidoacetyl = [N-]=[N+]=NCC(=O)*; Cbz = O=C(OCc1ccccc1)*

What is called Kd is the constant that tells how readily two partners part at equilibrium.

In the first experiment the test system is HEK293 PALB2 IKZF3d/IKZF3d knock-in cells. In words: Cell viability assay (WST-1). The format is cell-based. The settings on record: homozygous KI cells pretreated with 10 μM Pom, then DNA damaging drug, 5 days cotreatment, WST1. A general note: Formazan colour is commonly taken as a measure of viable cells.
In the case of `CC[C@@]1(O)C(=O)OCc2c1cc1n(c2=O)Cc2cc3ccccc3nc2-1` [CPT, camptothecin], the “synergistic toxicity with PALB2 depletion” value was “noticeable synergistic toxicity”. Consider `O=C(c1cc(Cc2n[nH]c(=O)c3ccccc23)ccc1F)N1CCN(C(=O)C2CC2)CC1` [olaparib], for which the “synergistic toxicity with PALB2 depletion” value was “noticeable synergistic toxicity”.

For the next experiment, the system named is PALB2-IKZF3d. In words: IMiD-induced degradation of PALB2-IKZF3d (Western blot). The format is cell-based. The settings on record: 1 μM inhibitor 6 h, then 10 μM pomalidomide 18 h. As to the method:
5.1 Degradation of PALB2 and UPP rescue assays
To show PALB2 deegradation, cells were treated with pomalidomide at the indicated concentrations for 24 h. The cells were subsequently lysed and prepared for gel electrophoresis and western blotting.
To show UPP rescue, MG132 and MLN4924 were used to inhibit the ubiquitination-proteasome degradation pathway. The cells were first treated with 1 μM MG132 or 1 μM MLN4924. After 6 h, pomalidomide was added to a final concentration of 10 μM. After 18 h, the cells were collected and lysed.
To show PALB2 recovery, the cells were first treated with 10 μM pomalidomide or 10 μM iberdomide for 24 h. After that, the culture medium was removed, the cells were washed three times with fresh culture medium and then cultured with culture medium without IMiDs.
The cells were then collected an d l yse d . […]
Figure S7. A). Degradation of endogenous PALB2.
B). PALB2 de gra dation rescue expe ri ment. The cells in the degradation rescue group w ere first t reated with 1 μ M MG132 and 1 μ M M LN49 24 for 6 hou rs and then t reated with 10 μ M pomalidomide for 1 8 hours. Cell samples were collected for WB analysis. The asterisk represents a nonspecific band of PALB 2 with t his antibody. […]
(Immunoblotting shows a protein as a band on a membrane.)
Take `CC(C)C[C@@H](C=O)NC(=O)[C@H](CC(C)C)NC(=O)[C@H](CC(C)C)NC(=O)OCc1ccccc1` [MG132] (Cbz-Leu-Leu-Leu-aldehyde): the “rescue of pomalidomide-induced PALB2-IKZF3d degradation” value is reported as “prevented the pomalidomide-induced degradation of PALB2-IKZF 3d”. Take `NS(=O)(=O)OC[C@@H]1C[C@@H](n2ccc3c(N[C@H]4CCc5ccccc54)ncnc32)C[C@@H]1O` [MLN4924]: the “rescue of pomalidomide-induced PALB2-IKZF3d degradation” value is “prevented the pomalidomide-induced degradation of PALB2-IKZF 3d”.

Staying with this experiment, now noted: 10 μM IMiD for 24 h, then medium removed and cells washed, knock-in cells.
`O=C1CC[C@H](N2Cc3c(OCc4ccc(CN5CCOCC5)cc4)cccc3C2=O)C(=O)N1` [Iber, iberdomide]: the “recovery of PALB2 levels after wash out” value is reported as “PALB2 levels recover after 24 h”.

The same experiment, now with this note: homozygous IKZF3d knock-in HEK293 cells, 24 h treatment.
With `O=C1CC[C@H](N2Cc3c(OCc4ccc(CN5CCOCC5)cc4)cccc3C2=O)C(=O)N1` [Iber, iberdomide], the “degradation of PALB2 in IKZF3d knock-in cells” value is recorded as “degradation could also be induced”.

For the next experiment, the target named is T1, PALB2C (Homo sapiens, UniProt Q86YC2).
T1 construct: C terminal part of Palb2 (aa 835-1186); His tag (C); 3C protease site; host or cells: Hi5 insect cells (virus produced and amplified in Sf9)
T1 sequence (Q86YC2 835-1186): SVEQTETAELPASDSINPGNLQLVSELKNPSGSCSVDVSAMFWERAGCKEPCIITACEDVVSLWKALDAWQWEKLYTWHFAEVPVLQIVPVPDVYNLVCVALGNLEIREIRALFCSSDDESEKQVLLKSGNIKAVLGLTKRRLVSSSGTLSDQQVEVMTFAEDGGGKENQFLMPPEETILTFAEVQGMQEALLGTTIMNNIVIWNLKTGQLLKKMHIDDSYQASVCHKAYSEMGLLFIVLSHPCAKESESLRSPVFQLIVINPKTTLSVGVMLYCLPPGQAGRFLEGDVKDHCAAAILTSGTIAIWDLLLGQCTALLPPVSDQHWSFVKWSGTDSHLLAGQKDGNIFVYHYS
Nature of the experiment: Displacement polarization assay (competition with FLU-GG-[…]). Conditions: alanine scan of BRCA2 21-35; dark peptide 10 μM, probe FLU-GG-[…] 10 nM; 20 min RT, 25 °C; competitive binding fit; N = 1-4; read-out: KD (alanine scan).
Procedure: To the mixture above, the dark peptide was added at a final concentration of 10 μM (1000 eq. excess). After incubation in the dark at RT for 20 min, fluorescence polarization was measured (ex: 485:20, em: 535:25, 25 °C).KD was obtained by fitting the signal to a competitive binding model described previously[52] by using the python lmfit package with the nonlinear least-squares method.
9.3 Displacement polarization assay
The displacement assay was set up similarly to the direct polarization assay. In addition to the
DMSO) was added to a final concentration of 20 μM.
μM and 10 nM for the peptide and the probe, respectively.
The resulting binding curve was fitted using the python lmfit package3 to a linearly transformed competitive KD binding model described previously4 using the non- linear least
𝑚𝑚 = 𝐾𝐾D, Probe + 𝐾𝐾D, Pep + 𝑐𝑐Probe + 𝑐𝑐Pep − 𝑐𝑐Prot
𝑛𝑛 = 𝐾𝐾D, Pep ⋅ (𝑐𝑐Probe − 𝑐𝑐Prot ) + 𝐾𝐾D, Probe ⋅ ?𝑐𝑐Pep − 𝑐𝑐Prot ? + 𝐾𝐾D, Pep ⋅ 𝐾𝐾D, Probe 𝑜𝑜 = −𝐾𝐾D, Pep ⋅ 𝐾𝐾D, Pro be ⋅ 𝑐𝑐Prot
𝜃𝜃 = cos −1 ?−2𝑚𝑚 3 + 9𝑚𝑚𝑛𝑛 − 27𝑜𝑜 ?
𝑟𝑟 = 2 ⋅ ?𝑚𝑚 2 − 3𝑛𝑛 ⋅ cos 𝜃𝜃3 − 𝑚𝑚
𝑓𝑓 = 𝑐𝑐Probe ⋅ 𝑟𝑟3 ⋅ 𝐾𝐾D, Probe + 𝑟𝑟
With H-KAALGPISLNWFEEL-NH2 [Peptide P29], the Kd worked out at 4.6 µM. On to H-KADLGAISLNWFEEL-NH2 [Peptide P32], for which the dissociation constant Kd was 3.6 µM. The same measure, in the same setting: to H-KADLGPASLNWFEEL-NH2 [Peptide P33] belongs 5.3 µM; to H-KADLGPIALNWFEEL-NH2 [Peptide P34], 4.9 µM. As for H-KADLGPISANWFEEL-NH2 [Peptide P35], the Kd amounted to 6.7 µM. Turning to H-KADLGPISLAWFEEL-NH2 [Peptide P36], the Kd turned out to be 4 µM. Still for that read-out and setting: to H-KADLGPISLNAFEEL-NH2 [Peptide P25] belongs 5.5 µM; to H-KADLGPISLNWAEEL-NH2 [Peptide P26], 10.1 µM.

Take H-KADLGPISLNWFAEL-NH2 [Peptide P27]: the Kd was 5.1 µM.

Consider “H-KADLGPISLNWFEAL-NH2 [Peptide P28, H-KADLGPISLNWFEAL-NH2]”, for which the Kd was 7 µM.

The same experiment, now with this note: truncated BRCA2 peptides; dark peptide 10 μM, probe FLU-GG-[…] 10 nM; 20 min RT, 25 °C; competitive binding fit; PALB2C source Hi5 (Figure 2B); N = 1-5; read-out: KD (other peptides).
As for H-DLGPISLNWFEEL-NH2 [Peptide P8], the Kd was 7.9 µM. For the compound H-GPISLNWFE-NH2 [Peptide P12], the Kd was found to be 17.9 µM.

Turning to H-GPISLNWFEEL-NH2 [Peptide P7], the Kd stood at 82.2 µM. As to H-KADLGPISLNWFE-NH2 [Peptide P14], the Kd came to 25.2 µM. For the compound H-KADLGPISLNWFEEL-NH2 [Peptide P9], the Kd came to 5 µM.

For a further experiment, the target named is T2, PALB2 C-terminal domain (PALB2C) (Homo sapiens, UniProt Q86YC2).
T2 construct: C terminal part of Palb2 (aa 835-1186); His tag (C); 3C protease site; host or cells: Hi5 insect cells (virus produced and amplified in Sf9)
T2 sequence (Q86YC2 835-1186): T1 sequence (Q86YC2 835-1186)
In words: Direct fluorescence polarization of labelled BRCA2 peptides. The format is binding. Conditions: FAM-GG-BRCA(10-39) compared with FAM-GG-BRCA(21-39). As to the method: FLU-GG-[…] (Peptide Protein Research Ltd., Fareham, UK) was dissolved in DMSO at 1 μM. PALB2C (22 μM, in 20 mM HEPES, 100 mM NaCl, 1 mM DTT, 1 mM EDTA) was diluted to a final concentration of 4.4 μM (same buffer supplemented with 0.01% (v/v) IGEPAL CA-630). The protein was serially diluted and fluorescent peptide was added to a final concentration of 10 nM. After incubation in the dark at RT for 20 min, fluorescence polarization was measured (ex: 485:20, em: 535:25, 25 °C). KD was obtained by fitting the signal to a binding model using the python lmfit package with the nonlinear least-squares method.[51]
9 Fluorescent polarization assay
9.1.1 Insect cell expression
PALB2-C was synthesized by the EPFL protein production facility0F1. In short; the virus was produced and amplified in Sf9 cells. C-terminal His-Tagged 3C-PALB2C was grown in 5 L o f Hi5 cells and harvested after 3 days. Pellet was frozen, defrosted and resuspended in 200 mL of wash buffer, supplemented to 5 % glycerol (v/v), 50 μL benzonase, and 2 protease inhibitor tablets. The mixture was clarified with a French press for a total of 4 cycles and centrifu g e d a t 32 kcfg for 1 h. The supernatant was decanted, supplemented with imidazole to a final concentration of 25 mM and added to 5 mL of Ni-NTA bead s. The b ead s were in cub ated with […]
The beads were washed with 40 column volumes (CV) with wash buffer (500 mM NaCl, 20 mM HEPES, pH 7.5), 10 CV with wash buffer and 50 mM imid az o le . The protein was eluted with 6 CV of elution buffer (500 mM NaCl, 20 mM HEPES, 300 mM imidazole, pH 7.5) to a total volume of 38 mL. The elute was concentrated to 1 mL and injected onto a pre-equilibrated Superdex 200 10/300GL column (250 mM NaCl, 10 mM HEPES, 5 mM DTT, 1 mM EDTA, pH […]
A total volume of 950 μL PALBC was received at a concentration of 1 mg/mL (equals 22 μM) in the superdex buffer. This corresponds to a yield of 0.19 mg/L of Hi5 cells. […]
Concentration was measured on a NanoDrop 2000. The concentration was determined to be […]
On the technique in general: In fluorescence polarisation assays a small probe gives low polarisation when free and higher when bound to something large.
As for `CC[C@H](C)[C@H](NC(=O)[C@H](CCC(=O)O)NC(=O)[C@H](Cc1ccccc1)NC(=O)[C@H](Cc1ccccc1)NC(=O)[C@@H](NC(=O)CNC(=O)CNC(=O)c1ccc2c(c1)C(=O)OC21c2ccc(O)cc2Oc2cc(O)ccc21)[C@@H](C)O)C(=O)N[C@@H](Cc1ccccc1)C(=O)N[C@@H](CCCCN)C(=O)N[C@H](C(=O)N[C@@H](CCCNC(=N)N)C(=O)N[C@@H](CS)C(=O)N[C@@H](CC(N)=O)C(=O)N[C@@H](CCCCN)C(=O)N[C@@H](C)C(=O)N[C@@H](CC(=O)O)C(=O)N[C@@H](CC(C)C)C(=O)NCC(=O)N1CCC[C@H]1C(=O)N[C@H](C(=O)N[C@@H](CO)C(=O)N[C@@H](CC(C)C)C(=O)N[C@@H](CC(N)=O)C(=O)N[C@@H](Cc1c[nH]c2ccccc12)C(=O)N[C@@H](Cc1ccccc1)C(=O)N[C@@H](CCC(=O)O)C(=O)N[C@@H](CCC(=O)O)C(=O)N[C@@H](CC(C)C)C(=O)N[C@@H](CO)C(=O)N[C@@H](CO)C(=O)N[C@@H](CCC(=O)O)C(=O)N[C@@H](C)C(N)=O)[C@@H](C)CC)[C@@H](C)O` [FAM-GG-BRCA(10-39)] (HELM PEPTIDE1{[O=C1OC2(c3ccc(O)cc3Oc3cc(O)ccc32)c2ccc(C(=O)[*:2])cc21].G.G.T.F.F.E.I.F.K.T.R.C.N.K.A.D.L.G.P.I.S.L.N.W.F.E.E.L.S.S.E.A.[am]}$$$$V2.0; N-terminus and C-terminus assumed), the “gain in binding affinity from residues 12-21” value is reported as 6–10 fold.

The same experiment, now with this note: direct FP; PALB2C source Hi5 insect cells; labelled peptide 10 nM; PALB2C serially diluted from 4.4 μM; 20 mM HEPES, 100 mM NaCl, 1 mM DTT, 1 mM EDTA, 0.01% IGEPAL CA-630; 20 min RT, read at 25 °C; N = 3-20.
“Cy5-DBCO-GG-BRCA(21-39): Cy5-modified peptide: P38 modified with 2-azidoacetic acid and Cy5-DBCO ({Cy5‑DBCO-Azidoacetyl}-GGKADLGPISLNWFEELSSEA; UniProt P51587 21-39, looked up, fragment)” had a Kd of 64 nM. Turning to “FLU-GG-KADLGPISLNWFEELSSEA [FAM-GG-BRCA(21-39), fluorescein-labelled BRCA2(21-39) peptide, Peptide Protein Research Ltd; FP probe]”, the Kd was 630 nM.

(Values after PMC12090178, “Exploring the Potential of Homologous Recombination Protein PALB2 in Synthetic Lethal Combinations” (ACS Chemical Biology, 2025).)
